Laboratory results taken from US9238684B2, “SPANX-B polypeptides and their use” (The United States of America, as represented by the …, priority 2009, dated 2016).
Entries after “also recorded” stand apart in the source; their conditions may differ.

What was measured:
[1] = system: OVCAR3 cells; experiment: CTL 51Cr release assay on OVCAR3; format: cell-based, human; settings: HLA-A2-positive, SPANX-B-negative target; FIG. 6D
Protocol: (§1) CTL assay and HLA blocking experiments: Tumor cell lines (target cells, 2×10^6) were incubated in 200 μL of fetal bovine serum (FBS) with 200 μCi of Na2^51CrO4 (PerkinElmer, Billerica, Mass.) for 2 hours at 37° C. Cells were washed with RPMI three times and resuspended in cRPMI with 10% FBS at 1×10^5 cells/mL. CTL assay was performed in triplicate in 96-well round bottom plates with 1×10^4/well ^51Cr-labeled target cells. The target cells were co-cultured at indicated ratios with effector cells (peptide-specific CD8^+ T cells) for 6 hours. The specific ^51Cr-release is calculated using formula: ((test sample release−spontaneous release)/(maximum release−spontaneous release))×100). Maximum release is for the target cells alone lysed with 2% Triton X-100.

[2] = system: SPANX-B; experiment: DNA immunization of mice, serum ELISA on peptide-coated plates; format: in vivo; settings: plates coated with peptide 5 μg/ml; FIG. 7
Protocol: Mice were intradermally immunized twice with 25 μg plasmid DNA constructs including MIP-3α-SPANX-B. Sera were tested for SPANX-B antibodies by ELISA assay in 96-well plates coated with the indicated peptides (5 μg/ml). […] The other was near the N-terminus, encoded by Pep-G1 (SEQ ID NO: 14) and Pep-2 (SEQ ID NO: 2) and Pep-3 (SEQ ID NO: 3).

[3] = system: UACC1273 melanoma cells; experiment: CTL 6-hour 51Cr release assay on UACC1273; format: cell-based, human; settings: SPANX-B-expressing, HLA-A2-positive target; FIGS. 6A-C
Protocol: as §1

[4] = system: HEK293 cells; experiment: CTL 51Cr release assay on HEK293 cells pulsed with Pep-2; format: cell-based, human; settings: FIGS. 6A-C
Protocol: as §1

[5] = system: SPANX-B-specific CD8^+ T cell lines; experiment: IFNγ secretion (ELISA) by CD8+ T cell lines stimulated with antigen-pulsed autologous DCs; format: cell-based, human
[6] = system: murine anti-SPANX-B antibody; experiment: ELISA on peptide-coated plates with murine anti-SPANX-B antibody; format: binding; settings: Ab from mice DNA immunized with SPANX-B-expressing plasmid; FIG. 1B
Protocol: FIGS. 1A-1F are digital images, a graph and a schematic diagram illustrating the specificity of antibody and expression of SPANX-B in human immortalized tumor cell lines. FIG. 1A is a digital image showing ANEA-I0117 antibody recognized SPANX-B expressed in mouse erythroleukemia RL5 cells. Western blotting results are shown with ANEA-I0117 anti-SPANX-B antibody on lysates of RL5 cells (2 μl, 5 μl and 10 μl, respectively) transiently transduced with plasmid expressing SPANX-B (SPANX-B). Control lysates were made from untransduced parental RL5 cells (Control). FIG. 1B is a graph showing murine anti-SPANX-B antibody, which was generated from mice DNA immunized with plasmid expressing SPANX-B, recognized unique SPANX-B-specific insert of SPANX-B (encoded in Pep-G1 and Pep-2 peptides), ELISA assay on plates coated with various peptides that are depicted in FIG. 1C. […] FIG. 1D is a digital image showing the expression of SPANX-B protein evaluated by Western blotting with ANEA-I0117 Ab (1:5000) in lysates of cell lines, such as HEK293 (HEK), Jurkat, CRL 7002, UACC1273, 938 Mel, CCRF-CEM (CEM), and normal human donor PBMC (upper panel). The blot was stripped and hybridized with anti-actin antibody (lower panel). FIGS. 1E and 1F are digital images obtained from an immunohistochemistry and immunofluorescent assay, respectively, of melanoma (UACC1273) and ovarian carcinoma (2008 and OVCAR3) cell lines. The cells were stained with ANEA-I0117 Ab (right and bottom panels in FIG. 1E and FIG. 1F, respectively); and control IgG (left and upper panels in FIG. 1E and FIG. 1F, respectively).
SPANX-B can be often found in the list of highly expressed genes in microarray study of human tumors, including hematological malignancies and breast cancer (see, for example, Minn et al., Nature 436(7050):518-24, 2005). To confirm this, expression was tested using two antibodies, a rabbit 3ANEA Ab and mouse SPANX-B Ab. […] The second SPANX-B Ab was produced from mice DNA immunized with SPANX-B-expressing plasmid. […] In contrast, it reacted with a second peptide Pep-2 that only represented unique for SPANX-B insert of Pep-G1 (FIGS. 1B and C).

[7] = system: primary human melanoma cells; experiment: CTL 51Cr release assay on primary human melanoma cells; format: cell-based
Protocol: as §1

EANEANKTM (Synthetic peptide Pep-2)
lysis of OVCAR3 cells by CD8+ T cells, with or without Pep-2 pulsing [1]: could not lyse HLA-A2-positive OVCAR3 cells that did not express SPANX-B, unless pulsed with Pep-2
B cell epitope recognized by sera of immunized mice (ELISA) [2]: Immunodominant B cell epitopes
lysis of UACC1273 melanoma cells by CD8+ T cell lines generated to the antigen [3]: killed UACC1273 melanoma cells
lysis of HLA-A2-expressing HEK293 cells pulsed with Pep-2 by CD8+ T cell lines generated to the antigen ([4]; HEK-A2, pulsed with 1 μg/ml Pep-2): lysed HLA-A2-expressing HEK293 cells that were pulsed with Pep-2
lysis of HLA-A2-negative parental HEK293 cells by CD8+ T cell lines generated to the antigen ([4]; HEK): did not kill
recognition of SPANX-B protein-pretreated DCs by CD8+ T cells generated with peptide-pulsed DCs [5]: also recognized SPANX-B protein-pretreated DCs
IFNγ secretion by SPANX-B-specific CD8+ T cells on stimulation with pulsed DCs ([5]; irradiated autologous DCs, lines generated with SPANX-B protein, FIG. 5A): secreted IFNγ
recognition of peptide by mouse SPANX-B Ab (ELISA) [6]: but not other region-specific peptides; also recorded: reacted with
lysis of HLA-A2-expressing primary melanoma tumors by CD8+ lines generated to the antigen ([7]; Tc526, Tc624 and Tc2492): recognized and lysed
lysis of HLA-A2-negative primary melanoma tumors by CD8+ lines generated to the antigen ([7]; Tc2547 and Tc938, FIG. 6E): not affected
